The results in this text go back to article PMC10996005, “Identification and Development of Cyclic Peptide Inhibitors of Hypoxia Inducible Factors 1 and 2 That Disrupt Hypoxia-Response Signaling in Cancer Cells” (Journal of the American Chemical Society, 2024).

Where a SMILES comes first, the peptide text is derived from it. [ ]: non-standard residue; d: D form. Phe(4-CF3) = N[C@@H](Cc1ccc(C(F)(F)F)cc1)C(=O)O; Phe(4-CN) = N#Cc1ccc(C[C@H](N)C(=O)O)cc1; Phe(4-I) = N[C@@H](Cc1ccc(I)cc1)C(=O)O; 1Nal = N[C@@H](Cc1cccc2ccccc12)C(=O)O; hPhe = N[C@@H](CCc1ccccc1)C(=O)O; 4Pal = N[C@@H](Cc1ccncc1)C(=O)O; hLeu = CC(C)CC[C@H](N)C(=O)O; Aib = CC(C)(N)C(=O)O

As a reminder, the Kd is the free concentration of one partner at which half of the binding sites on the other are occupied at equilibrium, for simple one-to-one binding.

T2 sequence (Q99814 240-350 limits assumed): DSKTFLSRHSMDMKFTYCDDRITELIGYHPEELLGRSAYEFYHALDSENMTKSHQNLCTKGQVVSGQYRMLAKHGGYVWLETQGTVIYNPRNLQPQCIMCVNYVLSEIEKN

In the first assay the target is T1, HIF-1α PAS-B domain (Homo sapiens, UniProt Q16665).
T1 construct: made in house
T1 sequence (Q16665 238-349 limits assumed): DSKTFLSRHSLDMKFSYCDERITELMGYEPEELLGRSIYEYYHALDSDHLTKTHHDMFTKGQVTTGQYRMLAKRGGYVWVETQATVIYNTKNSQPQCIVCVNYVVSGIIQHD
The assay can be described thus: MST binding to the PAS-B domain of HIF-1α. The conditions noted are these: KD for HIF-1α PAS-B, MST; mean ± SEM, n = 2 (n = 1 for most C1 analogues, n = 3 in Figure S2). On the procedure: (§1) All reagents were purchased from Fisher Scientific or Sigma Aldrich UK unless specified otherwise.
(§2) Restriction enzymes and microbiology reagents were purchased from New England Biolabs Inc., Fisher Scientific (UK) or Promega (UK) and were used as directed by the manufacturer. Primers and oligonucleotides were synthesised by Integrated DNA Technologies (UK). DNA sequencing was carried out by Eurofins MWG Operon (Germany).
(§3) Construction of the RTHS and SICLOPPS library, screening, purification of recombinant HIF proteins, and the PLA was conducted as previously described in Miranda et al., J. Am. Chem. Soc., 2013, 135(28); […]
(§4) Protein labelling with MST dye
(§5) Protein was buffer exchanged from storage buffer into labelling buffer (0.1 M NaHCO3, pH 8.5) using a PD spintrap G-25 column (GE healthcare). The protein concentration was then adjusted to 20 µM.
(§6) The commercially sourced MST dye (NanoTemper) was prepared as a 470 µM solution in DMSO, which was then further diluted to 60 µM using labelling buffer. To the protein solution was added an equal volume of dye solution, and the labelling reaction was left for 1 hour in the dark at room temperature.
(§7) The labelled protein was separated from unreacted dye by elution through a PD minitrap G-25 column (GE healthcare). Labelled protein was then aliquoted and stored at -80 °C. Extent of labelling was measured by the absorbance obtained using the UV-vis mode on a NanoDrop ND-1000 Spectrophotometer (NanoDrop Technologies, USA).
(§8) Labelled protein was thawed on ice and diluted to 50 nM in assay buffer containing 50 mM Tris pH 8.0, 150 mM NaCl, 5% (v/v) glycerol, 1 mM TCEP and 0.05% TWEEN-20. The protein solution was then centrifuged at 12000 rpm for 15 minutes at 4 °C and left on ice. Compounds were prepared and serially diluted in DMSO at 10x assay concentration, before diluting to 2x assay concentration in assay buffer.
(§9) The 2x compound solutions were then mixed 1:1 (v/v) with 50 nM labelled protein solution and left to incubate for 1 hour at room temperature. Solutions were then loaded into Monolith NT.115 Premium Capillaries (NanoTemper) and placed in the sample tray. MST experiments were carried out
For `CC[C@H](C)[C@@H]1NC(=O)[C@H](C(C)C)NC(=O)[C@H](CCCNC(=N)N)NC(=O)[C@H](CS)NC(=O)[C@H](Cc2ccccc2)NC(=O)[C@H]([C@@H](C)CC)NC1=O` [cyclo-CRVIIF] (cyclo(CRVIIF); ring closure inferred), the affinity, expressed as Kd, was 65.5 ± 11.4 µM.

The assay is the same for the next values; noted with them: MST.
Take `CC[C@H](C)[C@@H]1NC(=O)[C@H](CC(C)C)NC(=O)[C@H](CCCCN)NC(=O)[C@H](CS)NC(=O)[C@H](Cc2ccccc2)NC(=O)[C@H]([C@@H](C)CC)NC1=O` [cyclo-CKLIIF] (cyclo(CKLIIF)): the “Hill slope of binding curve to HIF-1α” value stood at 1.33.

Staying with this assay, now noted: MST KD ratio.
Consider `CC[C@H](C)[C@@H]1NC(=O)[C@H](CC(C)C)NC(=O)[C@H](CCCNC(=N)N)NC(=O)[C@H](CS)NC(=O)[C@H](CCc2ccccc2)NC(=O)[C@H]([C@@H](C)CC)NC1=O` [hF, cyclo-CRLIIhF] (cyclo(CRLII[hPhe])), for which the “improvement in HIF-1α binding affinity compared to the parent cyclic peptide cyclo-CRLIIF” value is reported as 3 fold.

As to `CC[C@H](C)[C@H](NC(C)=O)C(=O)N[C@@H](Cc1ccccc1)C(=O)N[C@@H](CS)C(N)=O` [Ac-IFC-NH2] (Ac-Ile-Phe-Cys-NH2), the “loss of affinity (KD) compared to cyclo-CRLIIF” value is reported as approximately 10 fold.

Take `CC[C@H](C)[C@@H]1NC(=O)[C@H](CC(C)C)NC(=O)[C@H](CCCNC(=N)N)NC(=O)[C@H](CS)NC(=O)[C@H](Cc2ccncc2)NC(=O)[C@H]([C@@H](C)CC)NC1=O` [4-Pal, cyclo-CRLII(4-Pal)] (cyclo([4Pal]CRLII)): the “loss of affinity (KD) compared to cyclo-CRLIIF” value was approximately 11 fold.

The assay is the same for the next values; noted with them: MST KD ratio vs Ac-IFC-NH2.
Regarding `CC[C@H](C)[C@H](NC(C)=O)C(=O)N[C@@H](Cc1ccc(I)cc1)C(=O)N[C@@H](CS)C(N)=O` [Ac-I(4-iodo)FC-NH2] (Ac-Ile-[Phe(4-I)]-Cys-NH2), the “improvement in HIF-1α affinity over the parent tripeptide” value was approximately 3 fold.

The same assay, now with this note: MST; mean ± SEM, n = 2 (n = 1 for most C1 analogues, n = 3 in Figure S2); read-out: KD for HIF-1α PAS-B.
On to `CC[C@H](C)[C@@H]1NC(=O)[C@H](CC(C)C)NC(=O)[C@H](CCCNC(=N)N)NC(=O)[C@H](CS)NC(=O)[C@H](Cc2ccccc2)NC(=O)[C@H](CCC(C)C)NC1=O` [hL, cyclo-CRLIhLF] (cyclo(CRLI[hLeu]F)), for which the dissociation constant Kd worked out at 4.4 ± 1.3 µM.

For the molecule `CC[C@H](C)[C@@H]1NC(=O)[C@H](CC(C)C)NC(=O)[C@H](CCCNC(=N)N)NC(=O)[C@H](CS)NC(=O)[C@H](Cc2cccc3ccccc23)NC(=O)[C@H]([C@@H](C)CC)NC1=O` [1-Nal, cyclo-CRLII(1-Nal)] (cyclo([1Nal]CRLII)), the Kd is 1.7 ± 0.5 µM.

As for `CC[C@H](C)[C@@H]1NC(=O)[C@H](CC(C)C)NC(=O)[C@H](CCCNC(=N)N)NC(=O)[C@H](C)NC(=O)[C@H](Cc2ccccc2)NC(=O)[C@H]([C@@H](C)CC)NC1=O` [cyclo-ARLIIF] (cyclo(ARLIIF)), the Kd was more than 100 µM.

With `CC[C@H](C)[C@@H]1NC(=O)[C@H](CC(C)C)NC(=O)[C@H](CCCNC(=N)N)NC(=O)[C@H](CS)NC(=O)[C@H](Cc2ccccc2)NC(=O)[C@H](C(C)C)NC1=O` [V, cyclo-CRLIVF] (cyclo(CRLIVF)), the Kd is 15.9 ± 0.3 µM.

For `CC[C@H](C)[C@@H]1NC(=O)[C@H](CC(C)C)NC(=O)[C@H](CCCNC(=N)N)NC(=O)[C@H](CS)NC(=O)[C@H](Cc2ccc(C#N)cc2)NC(=O)[C@H]([C@@H](C)CC)NC1=O` [CN, cyclo-CRLII(4-CN)F] (cyclo(CRLII[Phe(4-CN)])), the Kd amounted to 4.4 ± 0.1 µM.

Take `CC[C@H](C)[C@@H]1NC(=O)[C@H](CC(C)C)NC(=O)[C@H](CCCNC(=N)N)NC(=O)[C@H](CS)NC(=O)[C@H](Cc2ccc(C(F)(F)F)cc2)NC(=O)[C@H]([C@@H](C)CC)NC1=O` [CF3, cyclo-CRLII(4-CF3)F] (cyclo(CRLII[Phe(4-CF3)])): the Kd amounted to 1.1 ± 0.5 µM.

Take `CC[C@H](C)[C@@H]1NC(=O)[C@H](CC(C)C)NC(=O)[C@H](CCCNC(=N)N)NC(=O)[C@H](CS)NC(=O)[C@H](Cc2ccccc2)NC(=O)C(C)(C)NC1=O` [Aib, cyclo-CRLIAibF] (cyclo([Aib]FCRLI)): the Kd came to 22.4 ± 0.1 µM.

Take `CC[C@H](C)[C@H](NC(C)=O)C(=O)N[C@@H](Cc1ccc(I)cc1)C(=O)N[C@@H](CS)C(N)=O` [Ac-I(4-iodo)FC-NH2] (Ac-Ile-[Phe(4-I)]-Cys-NH2): the dissociation constant (Kd) came to 21.5 ± 3 µM.

Regarding `CC[C@H](C)[C@@H]1NC(=O)[C@H](CC(C)C)NC(=O)[C@H](CCCNC(=N)N)NC(=O)[C@H]([C@@H](C)O)NC(=O)[C@H](Cc2ccccc2)NC(=O)[C@H]([C@@H](C)CC)NC1=O` [T, cyclo-TRLIIF] (cyclo(FTRLII)), the Kd was more than 100 µM.

Regarding `CC[C@H](C)[C@@H]1NC(=O)[C@H](CC(C)C)NC(=O)[C@H](CCCNC(=N)N)NC(=O)[C@H](CS)NC(=O)[C@H](CCc2ccccc2)NC(=O)[C@H]([C@@H](C)CC)NC1=O` [hF, cyclo-CRLIIhF] (cyclo(CRLII[hPhe])), the dissociation constant Kd worked out at 1.2 ± 0.7 µM.

Still in this assay, the particulars now being: ratio of MST KD values.
As for `CC[C@H](C)[C@@H]1NC(=O)[C@H](C(C)C)NC(=O)[C@H](CCCNC(=N)N)NC(=O)[C@H](CS)NC(=O)[C@H](Cc2ccccc2)NC(=O)[C@H]([C@@H](C)CC)NC1=O` [cyclo-CRVIIF] (cyclo(CRVIIF); ring closure inferred), the “selectivity for HIF-1α over HIF-2α” value stood at 2 fold.

A further assay has as its target T2, HIF-2α PAS-B domain (Homo sapiens, UniProt Q99814).
T2 construct: made in house
As to the kind of experiment: MST binding to the PAS-B domain of HIF-2α. The note with it: MST. On the procedure: as §1, §2, §3, §4, §5, §6, §7, §8, §9
For `CC[C@H](C)[C@@H]1NC(=O)[C@H](CC(C)C)NC(=O)[C@H](CCCCN)NC(=O)[C@H](CS)NC(=O)[C@H](Cc2ccccc2)NC(=O)[C@H]([C@@H](C)CC)NC1=O` [cyclo-CKLIIF] (cyclo(CKLIIF)), the “Hill slope of binding curve to HIF-2α” value worked out at 1.38.

Still in this assay, the particulars now being: MST; mean (n = 2) ± SEM.
Regarding `CC[C@H](C)[C@@H]1NC(=O)[C@H](CC(C)C)NC(=O)[C@H](CCCNC(=N)N)NC(=O)[C@H](C)NC(=O)[C@H](Cc2ccccc2)NC(=O)[C@H]([C@@H](C)CC)NC1=O` [cyclo-ARLIIF] (cyclo(ARLIIF)), the Kd is more than 100 µM.
